Measurements published in PubChem BioAssay AID504703 (Southern Research Specialized Biocontainment Screening …, 2011).
Values joined by “and” are separate entries in the source; they are usually repeats but may differ in a detail not shown here. Equal entries are not always repeated. Active and inactive are the calls of the source. How the calls were made is not given here.

Tested on: M. tuberculosis H37Rv growth inhibition with meropenem
Assay: M. tuberculosis growth inhibition, H37Rv, set 2, dose response (AID 504703);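 further: growth ran 7 days at 37 °C then overnight with Alamar Blue before reading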
[1] = M. tuberculosis H37Rv growth inhibition, measured here: IC50 without meropenem
[2] = M. tuberculosis H37Rv growth inhibition, measured here: IC90 without meropenem
[3] = measured here: IC90 with meropenem

SMILES	IC50 [1]	IC90 [2]	IC50	IC90 [3]
CCOc1ccc2nc(NC(=O)COc3ccc(Cl)c(C)c3)sc2c1	> 25 µM	> 25 µM	–	–
CCOc1ccc2nc(NC(=O)COc3ccc(F)cc3)sc2c1	> 25 µM	> 25 µM	–	–
CCCOc1ccc2c(c1)c(C(C)=O)c(C)n2-c1ccccc1	> 25 µM	> 25 µM	–	–
CCOc1ccc(NC(=O)COc2ccc(C)cc2C)cc1	> 25 µM	> 25 µM	–	–
O=C(COc1ccccc1)Nc1nc2ccccc2s1	> 25 µM	> 25 µM	–	–
Cc1ccc(C(C)C)c(OCC(=O)Nc2nc3ccccc3s2)c1	> 25 µM	> 25 µM	–	–
Cc1ccccc1OCC(=O)Nc1ncccn1	> 25 µM	> 25 µM	–	–
CCOc1ccc2nc(NC(=O)Cc3ccc(OC)cc3)sc2c1	> 25 µM	> 25 µM	–	–
Cc1cc2ccccc2[nH]1	> 25 µM	> 25 µM	–	–
Cc1ccccc1OCC(=O)Nc1ccccc1-c1ccccc1	> 25 µM	> 25 µM	14.6 µM (inactive)	> 25 µM
COC(=O)c1c(C)[nH]c2ccc(Cl)cc12	> 25 µM	> 25 µM	–	–
Cc1ccc(OCC(=O)Nc2nnn(C)n2)c(C)c1	> 25 µM	> 25 µM	–	–
CC(=O)c1c(C)n(-c2ccccc2)c2ccc(OS(=O)(=O)C(F)(F)F)cc12	> 25 µM	> 25 µM	> 25 µM (inactive)	> 25 µM
COc1ccc2nc(NC(=O)COc3ccc(Cl)cc3)sc2c1	> 25 µM	> 25 µM	–	–
CCOc1ccc2[nH]c(C)cc2c1	> 25 µM	> 25 µM	–	–
N/C(=N\c1nc2ccccc2o1)NC(=O)COc1ccc2ccccc2c1	> 25 µM	> 25 µM	–	–
CC(=O)c1c(C)n(-c2ccc(C)cc2)c2ccc(O)cc12	> 25 µM	> 25 µM	–	–
COc1ccc2nc(NC(=O)C(C)Oc3ccccc3)sc2c1 (stereo unspecified)	> 25 µM	> 25 µM	–	–
OCCCc1cn(-c2ccccc2)c2ccccc12	> 25 µM	> 25 µM	14.2 µM (inactive)	> 25 µM
O=C(COc1ccc2ccccc2c1)Nc1nc2ccccc2[nH]1	> 18.8 µM and 15.5 µM	> 25 µM	> 18.8 µM (inactive) and 8.87 µM (inactive)	> 25 µM
COC(=O)c1c(C)[nH]c2ccccc12	> 25 µM	> 25 µM	–	–
CCC(=O)N/C(N)=N/c1nc2ccccc2o1	> 25 µM	> 25 µM	–	–
Cc1cc(C)c(OCC(=O)Nc2nc3ccccc3[nH]2)c(C)c1	> 18.8 µM and 7.46 µM	> 25 µM	5.55 µM (inactive)	> 25 µM

SMILES	IC50 [1]	IC90 [2]	IC50	IC90 [3]
O=C(Nc1ccccc1)Nc1csc2ccccc12	5.5 µM and 1.82 µM	> 25 µM	–	> 25 µM
Cc1ccc(OCC(=O)Nc2ccc(Cl)cc2)c(C)c1	> 25 µM	> 25 µM	–	–
N/C(=N\c1nc2ccccc2o1)NC(=O)c1ccccc1	> 25 µM	> 25 µM	–	–
Cc1ccccc1C(=O)Nc1nc2ccccc2[nH]1	17.9 µM	> 25 µM	8.75 µM (inactive)	> 25 µM
CC(Oc1ccc(Cl)cc1)C(=O)Nc1nc2ccccc2s1 (stereo unspecified)	> 25 µM	> 25 µM	–	–
CC(=O)Nc1ccc2nc(NC(=O)Cc3ccccc3)sc2c1	> 25 µM	> 25 µM	–	–
N/C(=N\c1nc2ccccc2o1)NC(=O)c1ccc(F)cc1	21.6 µM	> 25 µM	9.64 µM (inactive)	> 25 µM
CCOC(=O)c1c(C)[nH]c2ccccc12	> 25 µM	> 25 µM	–	–
O=C(O)CCC(=O)Nc1nc2ccccc2s1	> 25 µM	> 25 µM	–	–
CCOc1ccc2nc(NC(=O)COc3ccccc3)sc2c1	> 25 µM	> 25 µM	–	–
Cc1cc2ccccc2n1-c1ccccc1	> 25 µM	> 25 µM	–	–
CCOc1ccc2[nH]cc(C(=O)OC)c2c1	> 25 µM	> 25 µM	> 25 µM (inactive)	> 25 µM
CC(=O)c1c(C)n(-c2ccccc2)c2ccccc12	> 25 µM	> 25 µM	11.6 µM (inactive)	> 25 µM
COC(=O)c1ccc2nc(NC(=O)COc3ccccc3)sc2c1	> 25 µM	> 25 µM	–	–
Cc1cc2cc(O)ccc2[nH]1	> 25 µM	> 25 µM	–	–
Cc1cc2cc(F)ccc2[nH]1	> 25 µM	> 25 µM	–	–
N/C(=N\c1nc2ccccc2o1)NC(=O)C1CC1	> 25 µM	> 25 µM	–	–
Cc1ccc(OCC(=O)Nc2nc3c(Cl)cccc3s2)cc1	> 25 µM	> 25 µM	–	–
Cc1ccc2sc(NC(=O)COc3ccccc3)nc2c1C	23.7 µM	> 25 µM	–	–
CCOc1ccc2nc(NC(=O)COc3ccc(OC)cc3)sc2c1	> 25 µM	> 25 µM	–	–
Cc1cc2cc(F)ccc2n1-c1ccccc1	> 25 µM	> 25 µM	–	–
c1ccc(-c2cc(N3CCOCC3)nc3ccccc23)cc1	> 25 µM	> 25 µM	10 µM (inactive)	> 18.8 µM
